Measured values: ChEMBL document CHEMBL1123013, “Synthesis and neuroleptic activity of 3-(1-substituted-4-piperidinyl)-1,2-benzisoxazoles” (J Med Chem, 1985)

Columns and labels:
Mus musculus = organism: Mus musculus; experiment: animal or person; settings: ip
Description: Neuroleptic activity in vivo by ability to antagonise climbing in apomorphine dosed mice after intraperitoneal administration.

Dopamine receptor = experiment: Ability to inhibit the binding of [3H]spiroperidol in rat striatal tissue; ND=assay not performed due to solubility problems.; type: tissue-based, Striatum

IC50 (Dopamine receptor)	SMILES	ED50 (Mus musculus) [mg/kg]
–	COc1ccc2c(C3CCN(CCCn4c(O)nc5ccccc54)CC3)noc2c1	> 10
–	Fc1ccc(C(CCCN2CCC(c3noc4ccccc34)CC2)c2ccc(F)cc2)cc1	1.6
–	Oc1ccc2onc(C3CCN(CCCC(c4ccc(F)cc4)c4ccc(F)cc4)CC3)c2c1	> 10
–	COc1cc2onc(C3CCN(CCCn4c(O)nc5ccccc54)CC3)c2cc1OC	> 10
–	Oc1nc2ccccc2n1CCCN1CCC(c2noc3cc(F)ccc23)CC1	0.09
–	Fc1ccc(C(CCCN2CCC(c3noc4ccc(F)cc34)CC2)c2ccc(F)cc2)cc1	1.6
–	COc1cc2onc(C3CCN(CCCc4c(C)[nH]c5ccccc45)CC3)c2cc1OC	> 10
–	Cc1[nH]c2ccccc2c1CCCN1CCC(c2noc3ccc(O)cc23)CC1	> 10
–	Oc1nc2ccccc2n1CCCN1CCC(c2noc3cc(Cl)ccc23)CC1	0.8
–	Cc1[nH]c2ccccc2c1CCCN1CCC(c2noc3cc(Cl)ccc23)CC1	4.1
–	Cc1[nH]c2ccccc2c1CCCN1CCC(c2noc3ccccc23)CC1	1.1
–	COc1cc2onc(C3CCN(CCCc4noc5cc(F)ccc45)CC3)c2cc1OC	> 10
–	Oc1nc2ccccc2n1CCCN1CCC(c2noc3cccc(F)c23)CC1	5.3
–	Fc1ccc2c(CCCN3CCC(c4noc5ccccc45)CC3)noc2c1	1.4
–	Cc1[nH]c2ccccc2c1CCCN1CCC(c2noc3ccc(F)cc23)CC1	> 10
–	COc1ccc2onc(C3CCN(CCCc4c(C)[nH]c5ccccc45)CC3)c2c1	> 10
–	Fc1ccc2c(CCCN3CCC(c4noc5cc(F)ccc45)CC3)noc2c1	0.08
–	O=C(c1ccccc1)C1CCNCC1	1.3
–	Oc1nc2ccccc2n1CCCN1CCC(c2noc3ccc(F)cc23)CC1	> 10
–	Fc1ccc2c(CCCN3CCC(c4noc5cc(Cl)ccc45)CC3)noc2c1	2
–	COc1ccc2onc(C3CCN(CCCC(c4ccc(F)cc4)c4ccc(F)cc4)CC3)c2c1	> 10
Insoluble	Oc1nc2ccccc2n1CCCN1CCC(c2noc3ccccc23)CC1	–
–	COc1ccc2onc(C3CCN(CCCc4noc5cc(F)ccc45)CC3)c2c1	7.2
–	COc1cc2onc(C3CCN(CCCC(c4ccc(F)cc4)c4ccc(F)cc4)CC3)c2cc1OC	> 10
